IC50 data for 51 compounds are collected here from ChEMBL document CHEMBL4052768, “Discovery of novel 2-(3-phenylpiperazin-1-yl)-pyrimidin-4-ones as glycogen synthase kinase-3β inhibitors” (Bioorg Med Chem Lett, 2017).

The target of test [1] is Glycogen synthase kinase-3 beta (Homo sapiens, UniProt P49841). The test can be described thus: Inhibition of recombinant human GSK-3beta using prephosphorylated GS-1 peptide as substrate after 1 hr in presence of [gamma-32P]ATP by liquid scintillation spectrometric method.
Chain of Glycogen synthase kinase-3 beta (P49841 whole entry): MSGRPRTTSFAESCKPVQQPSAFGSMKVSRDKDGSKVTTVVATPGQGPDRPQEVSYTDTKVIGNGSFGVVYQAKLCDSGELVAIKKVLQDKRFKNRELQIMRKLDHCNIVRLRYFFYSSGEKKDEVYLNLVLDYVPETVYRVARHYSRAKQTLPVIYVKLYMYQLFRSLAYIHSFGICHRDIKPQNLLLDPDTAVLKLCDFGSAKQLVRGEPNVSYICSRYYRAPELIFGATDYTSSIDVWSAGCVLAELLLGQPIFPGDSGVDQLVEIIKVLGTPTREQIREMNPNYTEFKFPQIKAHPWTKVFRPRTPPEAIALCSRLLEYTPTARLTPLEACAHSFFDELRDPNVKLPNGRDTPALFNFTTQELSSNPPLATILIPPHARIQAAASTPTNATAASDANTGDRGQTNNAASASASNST
The target of test [2] is T1, Cytochrome P450 1A2 (Homo sapiens, UniProt P05177).
T1 sequence (P05177 whole entry): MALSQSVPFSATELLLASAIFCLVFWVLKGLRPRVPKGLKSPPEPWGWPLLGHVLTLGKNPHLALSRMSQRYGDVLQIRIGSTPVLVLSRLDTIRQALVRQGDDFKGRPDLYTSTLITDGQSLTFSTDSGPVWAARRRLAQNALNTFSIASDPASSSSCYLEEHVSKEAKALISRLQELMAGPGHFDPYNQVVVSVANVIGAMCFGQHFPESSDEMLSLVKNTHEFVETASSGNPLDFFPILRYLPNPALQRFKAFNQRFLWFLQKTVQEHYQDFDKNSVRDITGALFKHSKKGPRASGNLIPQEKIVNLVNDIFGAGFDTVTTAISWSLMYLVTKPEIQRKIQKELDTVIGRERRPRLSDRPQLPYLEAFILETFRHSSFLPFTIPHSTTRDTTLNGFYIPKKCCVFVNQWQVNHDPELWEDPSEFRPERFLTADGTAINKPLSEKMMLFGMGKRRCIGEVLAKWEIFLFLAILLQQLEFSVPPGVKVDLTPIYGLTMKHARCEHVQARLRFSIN
Kind of test: Inhibition of CYP1A2 in human liver microsomes. The format is ADME.

The target of test [3] is T2, Cytochrome P450 2D6 (Homo sapiens, UniProt P10635). Kind of test: Inhibition of recombinant human CYP2D6. In kind it is ADME.
T2 sequence (P10635 whole entry): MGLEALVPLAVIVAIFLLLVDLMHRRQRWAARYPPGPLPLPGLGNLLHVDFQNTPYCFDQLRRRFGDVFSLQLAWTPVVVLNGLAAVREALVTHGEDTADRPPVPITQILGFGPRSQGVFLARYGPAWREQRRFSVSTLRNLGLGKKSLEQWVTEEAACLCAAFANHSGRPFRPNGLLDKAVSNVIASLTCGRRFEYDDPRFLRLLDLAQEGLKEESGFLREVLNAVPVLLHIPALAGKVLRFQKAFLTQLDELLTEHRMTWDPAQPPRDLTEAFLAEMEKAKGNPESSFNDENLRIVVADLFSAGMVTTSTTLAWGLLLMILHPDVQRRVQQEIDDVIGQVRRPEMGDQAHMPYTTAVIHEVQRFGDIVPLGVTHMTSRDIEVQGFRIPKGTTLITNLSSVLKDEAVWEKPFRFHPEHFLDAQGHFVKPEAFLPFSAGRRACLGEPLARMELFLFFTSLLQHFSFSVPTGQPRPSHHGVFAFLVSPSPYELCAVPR
Test [4] addresses T3, Cytochrome P450 3A4 (Homo sapiens, UniProt P08684). The test can be described thus: Inhibition of recombinant human CYP3A4. The format is ADME.
The target of test [5] is T1, Cytochrome P450 1A2. Kind of test: Inhibition of recombinant human CYP1A2. In kind it is ADME.
The target in test [6] is T2, Cytochrome P450 2D6. The test can be described thus: Inhibition of CYP2D6 in human liver microsomes. The format is ADME.
Test [7] deals with T3, Cytochrome P450 3A4. The test can be described thus: Inhibition of CYP3A4 in human liver microsomes. The format is ADME.

T3 sequence (P08684 whole entry): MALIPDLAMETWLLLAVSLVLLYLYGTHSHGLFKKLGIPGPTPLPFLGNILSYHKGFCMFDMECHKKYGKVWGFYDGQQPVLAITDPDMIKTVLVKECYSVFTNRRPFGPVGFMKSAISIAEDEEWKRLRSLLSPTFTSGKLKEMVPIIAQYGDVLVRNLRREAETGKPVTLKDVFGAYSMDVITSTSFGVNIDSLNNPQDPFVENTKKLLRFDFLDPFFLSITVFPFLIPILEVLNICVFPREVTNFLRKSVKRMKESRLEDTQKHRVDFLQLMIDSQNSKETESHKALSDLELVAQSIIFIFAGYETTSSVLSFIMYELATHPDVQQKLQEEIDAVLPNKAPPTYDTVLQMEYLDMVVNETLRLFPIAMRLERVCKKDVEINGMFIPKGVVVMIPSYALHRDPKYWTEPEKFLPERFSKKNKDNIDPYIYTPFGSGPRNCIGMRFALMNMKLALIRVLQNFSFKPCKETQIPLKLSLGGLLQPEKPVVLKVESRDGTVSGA

Take `COc1cc(F)ccc1C1CN(c2nc(-c3ccncn3)cc(=O)n2C)CCN1C` (stereo unspecified): the half-inhibitory concentration (IC50) in test [1] was determined as 26 nM.
In the case of `Cn1c(N2CCNC(c3cccc(Cl)c3)C2)nc(-c2ccncn2)cc1=O` (racemic), the IC50 in test [1] was 1.1 nM.
Turning to `Cn1c(N2CCNC(c3ccc(Br)cc3)C2)nc(-c2ccncc2)cc1=O` (racemic), in test [1], the IC50 is 22 nM.
On the same count and under the same terms, the same measure for `Cn1c(N2CCNC(c3cccc(F)c3)C2)nc(-c2ccncn2)cc1=O` (racemic): 12 nM; for `Cn1c(N2CCNC(c3ccccc3F)C2)nc(-c2ccncc2)cc1=O` (stereo unspecified): 11 nM; for `Cn1c(N2CCNC(c3ccccc3Cl)C2)nc(-c2ccncn2)cc1=O` (racemic): 2.6 nM.
For `COc1cccc(C2CN(c3nc(-c4ccncn4)cc(=O)n3C)CCN2)c1` (racemic), in test [1], the half-maximal inhibitory concentration (IC50) was found to be 6.7 nM.
On to `Cn1c(N2CCNC(c3ccc(C#N)cc3)C2)nc(-c2ccncn2)cc1=O` (racemic), for which the concentration for half-maximal inhibition (IC50) in test [1] was determined as 7.4 nM.
With `COc1cc(F)ccc1C1CN(c2nc(-c3ccncc3)cc(=O)n2C)CCN1` (racemic), the half-inhibitory concentration (IC50) in test [2] was more than 53000 nM; in test [1] it was 0.9 nM; in test [3], 1800 nM; in test [4] it was more than 53000 nM.
Turning to `Cn1c(N2CCNC(c3ccccc3)C2)nc(-c2ccncc2)cc1=O` (racemic), the IC50 in test [1] was found to be 18 nM.
As for `COc1ccc(C2CN(c3nc(-c4ccncn4)cc(=O)n3C)CCN2)cc1OC` (stereo unspecified), in test [1], the IC50 was 7.8 nM.
For the compound `COc1cc(F)ccc1C1CN(c2nc(-c3ccncc3)cc(=O)n2C)CCN1` (single isomer, unassigned; enantiomer 2), the concentration for half-maximal inhibition (IC50) is more than 53000 nM in test [2], 0.4 nM in test [1], 6000 nM in test [3] and more than 50000 nM in test [4].
With `Cn1c(N2CCNC(c3ccc(Cl)c(Cl)c3)C2)nc(-c2ccncc2)cc1=O` (stereo unspecified), the IC50 in test [1] was 4.3 nM.
Take `COc1cc(F)ccc1C1CN(c2nc(-c3ccncc3)cc(=O)n2C)CCN1C` (stereo unspecified): the IC50 in test [1] is 56 nM.
As to `Cc1cc(F)ccc1C1CN(c2nc(-c3ccncc3)cc(=O)n2C)CCN1` (stereo unspecified), the IC50 in test [1] was found to be 24 nM.
As to `Cn1c(N2CCNC(c3cccc(Cl)c3)C2)nc(-c2ccncc2)cc1=O` (racemic), the concentration for half-maximal inhibition (IC50) in test [1] came to 5.4 nM.
On to `COc1cc(F)ccc1C1CN(c2nc(-c3ccncn3)cc(=O)n2C)CCN1` (single isomer, unassigned; enantiomer 2), for which the IC50 in test [2] is more than 53000 nM; in test [1], 0.25 nM; in test [3] it was 9100 nM.
As for `CCOc1ccccc1C1CN(c2nc(-c3ccncc3)cc(=O)n2C)CCN1` (stereo unspecified), the IC50 in test [1] stood at 25 nM.
In the case of `CCOc1ccccc1C1CN(c2nc(-c3ccncn3)cc(=O)n2C)CCN1` (stereo unspecified), the IC50 in test [1] is 20 nM.
`Cn1c(N2CCN[C@H](c3ccc(Cl)cc3)C2)nc(-c2ccncc2)cc1=O`: in test [1], the IC50 was found to be 110 nM.
On to `Cn1c(N2CCNC(c3ccc(Cl)cc3)C2)nc(-c2ccncn2)cc1=O` (racemic), for which the 50% inhibitory concentration (IC50) in test [1] was 1.7 nM.
On the same count and under the same terms, the same measure for `Cn1c(N2CCNC(c3cccc(F)c3)C2)nc(-c2ccncc2)cc1=O` (racemic): 22 nM; for `Cn1c(N2CCNC(c3ccc(F)cc3)C2)nc(-c2ccncc2)cc1=O` (racemic): 18 nM.
The same measure, in the same setting: the same measure for `Cn1c(N2CCNC(c3ccccc3Cl)C2)nc(-c2ccncc2)cc1=O` (racemic): 9.6 nM.
On to `Cn1c(N2CCNC(c3ccc(F)cc3)C2)nc(-c2ccncn2)cc1=O` (racemic), for which the IC50 in test [1] is 8.6 nM.
On the same count and under the same terms, the same measure for `COc1cc(F)cc(F)c1C1CN(c2nc(-c3ccncc3)cc(=O)n2C)CCN1` (stereo unspecified): 2 nM.
Turning to `COc1cc(F)ccc1C1CN(c2nc(-c3ccncc3)cc(=O)n2C)CCN1Cc1ccccc1` (stereo unspecified), the 50% inhibitory concentration (IC50) in test [1] turned out to be 1200 nM.
In the case of `Cn1c(N2CCNC(c3ccccc3Br)C2)nc(-c2ccncc2)cc1=O` (racemic), in test [1], the IC50 was 13 nM.
As for `COc1ccc(C2CN(c3nc(-c4ccncc4)cc(=O)n3C)CCN2)cc1OC` (stereo unspecified), in test [1], the 50% inhibitory concentration (IC50) came out at 5.2 nM.
Still for that read-out and setting: the same measure for `Cn1c(N2CCN[C@@H](c3ccc(Cl)cc3)C2)nc(-c2ccncn2)cc1=O`: 1.2 nM.
For the compound `COc1cc(F)ccc1C1CN(c2nc(-c3ccncn3)cc(=O)n2C)CCN1` (racemic), the concentration for half-maximal inhibition (IC50) in test [2] was more than 53000 nM; in test [1], 0.72 nM; in test [3], 2700 nM.
On to `COc1ccccc1C1CN(c2nc(-c3ccncc3)cc(=O)n2C)CCN1` (racemic), for which the IC50 in test [1] is 1.8 nM; in test [5] it was more than 50000 nM; in test [3] it was less than 200 nM; in test [4], more than 50000 nM.
Regarding `COc1cc(F)ccc1C1CN(c2nc(-c3ccncn3)cc(=O)n2C)CCN1Cc1ccccc1` (stereo unspecified), in test [1], the half-maximal inhibitory concentration (IC50) stood at 220 nM.
Same read-out and setting: the same measure for `Cn1c(N2CCNC(c3ccc(Cl)c(Cl)c3)C2)nc(-c2ccncn2)cc1=O` (stereo unspecified): 2.3 nM; for `Cn1c(N2CCNC(c3ccccc3Br)C2)nc(-c2ccncn2)cc1=O` (racemic): 4.3 nM.
Regarding `COc1cc(F)cc(F)c1C1CN(c2nc(-c3ccncn3)cc(=O)n2C)CCN1` (stereo unspecified), in test [1], the concentration for half-maximal inhibition (IC50) stood at 1.7 nM.
Take `Cn1c(N2CCN[C@@H](c3ccc(Cl)cc3)C2)nc(-c2ccncc2)cc1=O`: the IC50 in test [1] came out at 11 nM.
Take `COc1cc(F)ccc1C1CN(c2nc(-c3ccncn3)cc(=O)n2C)CCN1` (single isomer, unassigned; Enantiomer-1): the half-inhibitory concentration (IC50) was more than 53000 nM in test [2], 44 nM in test [1], 3400 nM in test [3] and more than 50000 nM in test [4].
As to `Cn1c(N2CCNC(c3ccc(C#N)cc3)C2)nc(-c2ccncc2)cc1=O` (racemic), the IC50 in test [1] was found to be 15 nM.
`Cn1c(N2CCNC(c3ccc(Cl)cc3)C2)nc(-c2ccncc2)cc1=O` (racemic): the 50% inhibitory concentration (IC50) in test [1] came to 6.6 nM.
For `Cn1c(N2CCNC(c3ccccc3F)C2)nc(-c2ccncn2)cc1=O` (stereo unspecified), the half-inhibitory concentration (IC50) in test [1] amounted to 8.2 nM.
Consider `COc1ccccc1C1CN(c2nc(-c3ccncn3)cc(=O)n2C)CCN1` (stereo unspecified), for which the half-maximal inhibitory concentration (IC50) in test [1] was 1.8 nM.
With `COc1cc(F)ccc1C1CN(c2nc(-c3ccncc3)cc(=O)n2C)CCN1` (single isomer, unassigned; enantiomer 1), the IC50 in test [2] is more than 53000 nM; in test [1], 54 nM; in test [3] it was 1000 nM; in test [4] it was more than 50000 nM.
Consider `COc1ccc(C2CN(c3nc(-c4ccncn4)cc(=O)n3C)CCN2)cc1` (racemic), for which, in test [1], the concentration for half-maximal inhibition (IC50) is 3.5 nM.
With `COc1cccc(C2CN(c3nc(-c4ccncc4)cc(=O)n3C)CCN2)c1` (racemic), the IC50 in test [1] was 11 nM; in test [5], more than 50000 nM; in test [3] it was 400 nM; in test [4], more than 50000 nM.
As to `Cn1c(N2CCN[C@H](c3ccc(Cl)cc3)C2)nc(-c2ccncn2)cc1=O`, in test [1], the half-maximal inhibitory concentration (IC50) worked out at 26 nM.
As for `Cn1c(N2CCNC(c3cccc(Br)c3)C2)nc(-c2ccncn2)cc1=O` (racemic), the IC50 in test [1] is 2 nM.
On the same count and under the same terms, under `COc1cc(F)ccc1C1CN(c2nc(-c3ccncc3)cc(=O)n2C)CCN1C(C)=O` (stereo unspecified) stands 1700 nM; under `Cn1c(N2CCNC(c3ccc(Br)cc3)C2)nc(-c2ccncn2)cc1=O` (racemic), 8.1 nM.
`COc1ccc(C2CN(c3nc(-c4ccncc4)cc(=O)n3C)CCN2)cc1` (racemic): the half-maximal inhibitory concentration (IC50) in test [2] was more than 53000 nM; in test [6], 45000 nM; in test [7] it was more than 53000 nM; in test [1], 4.7 nM.
For the compound `COc1cc(F)ccc1C1CN(c2nc(-c3ccncn3)cc(=O)n2C)CCN1C(C)=O` (stereo unspecified), the concentration for half-maximal inhibition (IC50) in test [1] is 1500 nM.
